Laboratory results reported in a melting point compilation (Tetko et al.; mined from patent text by program, amines drawn as free bases though some values may be those of a salt).

| melting point | SMILES |
| --- | --- |
| 127 to 128 °C | CCOc1cccc(F)c1C1OC(=O)NC1=O (stereo not drawn) |
| 136 °C | COc1ccccc1Cn1c(-c2cc(OC)c(OC)c(OC)c2)nc2ccccc21 |
| 108 to 111 °C | CCCCCCCCCCCCn1nnnc1Nc1ccccc1 |
| 198 to 200 °C | CN1C(=O)CCC(C)(C)c2cc(Nc3ncc(Cl)c(Nc4ccccc4S(=O)(=O)N(C)C)n3)ccc21 |
| 152 to 154 °C | NC(=O)c1ccnc(Cl)n1 |
| 105 to 106 °C | CCOC(=O)CC(=O)c1cc(F)c(S(=O)c2ccccc2)nc1Nc1ccc(F)cc1F (stereo not drawn) |
| 202 to 204 °C | NCC1CCn2c(c(C3=C(c4cccc(C(F)(F)F)c4)C(=O)NC3=O)c3ccccc32)C1 (stereo not drawn) |
| 113 to 114 °C | Cc1nsc(Cl)c1CS(=O)(=O)C1=NOC(C)(C)C1 |
| 137 to 139 °C | COc1ccc(N2CCN(c3c(C)c(C)c4c(c3C)CC3(CCCC3)O4)CC2)cc1 |
| 192 to 194 °C | O=C1Cc2c(cccc2-c2ccccc2)N1 |
| 106 to 124 °C | COC(=O)CN1CCN(C)c2cc(Nc3ncc(Cl)c(Nc4ccccc4NS(C)(=O)=O)n3)ccc2C1 |
| > 275 °C | CCOC(=O)Nc1nc(-c2ccccc2)c(-c2nc3ccccc3c(=O)n2-c2ccc(C)cc2)s1 |
| 128 to 129 °C | CC(C)CCNC(Nc1cc(C(F)(F)F)cc(C(F)(F)F)c1)=C(C#N)C(=O)OC(C)(C)C |
| 173 to 174 °C | O=S(=O)(Nc1ccc2c(OCc3cccc(-c4ccc(F)cc4)n3)cccc2c1)C(F)(F)F |
| 106 to 109 °C | COC1(C)Oc2cccc(O)c2O1 (stereo not drawn) |
| 73 to 74 °C | CCCC(=O)NCCN1CCOc2ccc(OC)cc21 |
| 128 to 129 °C | CNCc1cc(C(=O)c2cccs2)cc(C(C)(C)C)c1O |
| 63 to 64 °C | COC(=O)c1nnn(C)c1C(=O)OC |
| 108 to 112 °C | CCCCCCCCCCCCCCCCCCOc1cc(C(=O)O)cc(C(=O)N(CC(=O)O)CC(=O)O)c1 |
| 161 to 163 °C | Cc1ccccc1OS(=O)(=O)c1ccc(N2CCCNC2=O)cc1 |
| 120 to 122 °C | CC(=O)NCC1CN(Cc2ccc(F)cc2)CCO1 (stereo not drawn) |
| 57 to 58 °C | O=c1cc(-c2ccccc2)oc2ccc(OCCCCCCCCN3CCC(O)CC3)cc12 |
| 103 to 110 °C | CC(CCc1ccc(O)cc1)NCC(O)c1cccc(Cl)c1 (stereo not drawn) |

| melting point | SMILES |
| --- | --- |
| 230 to 232 °C | Cc1cc2c(-c3cccc(C=O)c3)c(CC(=O)O)c(=O)oc2cc1Cl |
| 207 to 208 °C | COc1ccc2c(C(=O)N3CCC[C@H]3C(=O)O)cc3cc4c(cc3c2c1)OCO4 |
| 196 °C | O=c1[nH]c2ccccc2n1CCCCN1CCC(c2c[nH]c3ccccc23)CC1 |
| 234 to 236 °C | CCCOc1ccc(F)c2c(=O)c(-c3ccc(C(=O)N4CCOCC4)cc3)c[nH]c12 |
| 200 to 201 °C | CC(C)(C)c1cc(-c2csc(CNC(=O)c3ccccc3)n2)cc(C(C)(C)C)c1O |
| 191 to 193 °C | Cc1cnc2c(C#N)cnn2c1-c1cccc(C(F)(F)F)c1 |
| 172 °C | COc1cc(O)c(CC=C(C)C)c(O)c1C(=O)C=Cc1ccc(O)cc1 |
| 73 to 77 °C | O=C1c2cc(O)ccc2SCC1Cc1ccccc1 (stereo not drawn) |
| 76 to 85 °C | COc1cc(N2CCN(C[C@H](C)O)CC2)ccc1Nc1ncc2ccc(-c3ccccc3OC)n2n1 |
| 39 to 40 °C | O=C(CCCCCCCCC1CO1)OCCOC(=O)CCCCCCCCC1CO1 (stereo not drawn) |
| 126 to 127 °C | CCCCn1c(=O)n(CCN2CCC(C(=O)c3ccc(F)cc3)CC2)c(=O)c2cscc21 |
| 110 to 112 °C | CCOC(=O)c1sc2cc(CO)ccc2c1Sc1cccc(OC)c1 |
| 117 to 118 °C | CCOC(=O)c1nc(-c2ccc(Cl)cc2Cl)c(-c2ccc(Cl)cc2)s1 |
| 105 to 106 °C | CCN(CC)c1cccc2nc3n(c12)C=CCCN3c1ccc(Cl)cc1Cl |
| 92 to 93 °C | CC(C)(Oc1ccc([Si](C)(C)C)cc1)C(=O)O |
| 213 to 215 °C | COC(=O)c1ccccc1-n1c(CCl)nc2ccc(F)cc2c1=O |
| 81 to 83 °C | CN(C)CCCCNc1nc2cc(Cl)c(Cl)cc2nc1-c1ccccn1 |
| 271 to 272 °C | O=C(O)c1ccc(N2CC(=O)N(S(=O)(=O)c3ccc(Cl)cc3)C2=O)cc1 |
| 90 to 92 °C | CC1(C)N=C(c2ccccc2)CC1c1ccncc1 (stereo not drawn) |
| 134 °C | OC(Cc1ccccc1)(Cn1cncn1)c1ccccc1 (stereo not drawn) |
| 128 to 130 °C | COc1ccc(C(CN(C)C)C2(O)C=CCCC2)cc1 (stereo not drawn) |
| 55 to 57 °C | CCCc1c(OCC2(O)CCCCC2Sc2ccc(C(=O)CCC(=O)O)cc2)ccc(C(C)=O)c1O (stereo not drawn) |
| 236 to 237 °C | CC1(C)OC(=S)Nc2ccc(-c3cccc(C#N)c3)cc21 |

| melting point | SMILES |
| --- | --- |
| 125 to 129 °C | N#CCN1CCc2ccccc2C(Oc2ccc(C(F)(F)F)cc2)C1 (stereo not drawn) |
| 146 to 148 °C | COCc1ncccc1CN(CCn1ccc2oc(C)cc2c1=O)Cc1ccc2c(c1)N(C)C(=O)C(C)(C)C(=O)N2C1CC1 |
| 111 to 112 °C | Cc1noc2cc3c(cc12)C1(CO3)C(=O)N(Cc2ccc(C(F)(F)F)o2)c2ccccc21 (stereo not drawn) |
| 89.5 to 90 °C | CC(CO)(CO)OCc1ccccc1 |
| 179 to 190 °C | COc1cc(C(O)c2c(O)c(=O)ccn2CCO)ccc1O (stereo not drawn) |
| 215 to 217 °C | CCCCC1=NSc2ccccc2N1Cc1ccc(-c2ccccc2C(=O)O)cc1 |
| 139 °C | CCOC(=O)C(NC(=O)NC)C(=O)OCC |
| 145 to 147 °C | CNc1c(NCCNCc2ccc(CN3CCCCC3)o2)c(=O)c1=O |
| 265 to 266 °C | CC(C)(C)OC(=O)c1ccc(NC2CCc3cc4nc(CO)[nH]c(=O)c4cc32)cc1 (racemic) |
| 94 to 97 °C | O=Cc1c(F)cccc1Sc1ccc(F)cc1 |
| 78 to 79 °C | O=C(OCc1ccc(F)cc1)c1cccc(C(=O)OCc2ccc(F)cc2)c1 |
| 169 to 172 °C | O=C1Nc2ccccc2N2CCCC12 (stereo not drawn) |
| 53 to 55 °C | COCC1CN=C(c2ccc(OCCCCCCCc3cc(C)no3)cc2)O1 (stereo not drawn) |
| 169 to 171 °C | CC(C)(C)OC(=O)Nc1ccc(-c2ccc(Cl)c(Cl)c2)cc1N |
| 176 °C | OCc1cc2c(F)cccc2nc1Cl |
| 70 to 71 °C | COC1=C(OC)C(=O)C(CCCCCCCCCCCCCCCC(=O)O)=C(C)C1=O |
| 221 to 224 °C | O=C(O)Cc1c(C(=O)c2ccc(Cl)cc2)[nH]c2ccccc12 |
| 50 to 54 °C | NCC(O)COCCCCCCCCc1ccccc1 (stereo not drawn) |
| 135 to 136 °C | Cc1ccnc2c(O)cccc12 |
| 264 to 268 °C | Cc1cc(Cl)cc(Cl)c1CNc1c(NC(C)(C)C)c(=O)c1=O |
| 132 to 133 °C | Clc1ccc(-c2nc(-n3cncn3)oc2CCC2=NCCO2)cc1 |
| 125 to 127 °C | c1ccc(C2CC3(CC(c4ccccc4)N2)OCCO3)cc1 (stereo not drawn) |
| 149 to 151 °C | Cc1nc(N2CCN(Cc3ccccc3)C2=O)sc1C(=O)NCc1ccccn1 |

| SMILES | melting point |
| --- | --- |
| COc1ccc2c3c1OC1C(=O)C(C)(C)C(C)C4C(C2)N(C)CCC314 (stereo not drawn) | 246 to 248 °C |
| CNC(=N[N+](=O)[O-])N(C)Cc1ccc(Cl)nc1 | 136 to 137 °C |
| Cc1cc(C)cc([PH](=O)c2cc(C)cc(C)c2)c1 | 82.4 °C |
| N#Cc1ccc(N2C(=O)N(CCCC(=O)O)C3(CCSCC3)C2=O)cc1C(F)(F)F | 197 to 198 °C |
